# Experimental data from publication PMC10362274 (iScience, 2023).
# Molecular target: HLA-A∗02:01 (Homo sapiens, UniProt P04439, D140Y/D185E/D98H/E176V/E277Q/G131W/G231S/I119V/I121R/I166T/I218V/L300P/L318F/N151K/N90K/P208A/P217A/Q86G/Q94H/R138H/R169H/T345S)
# Format: binding
# Settings: n = 2
substance,measurement,value
YM2SODGTM6SOSQV [M2SOM6SO],IC50 compared with the native peptide,increased
